Consider nine molecules from ChEMBL document CHEMBL5104178, “Nitroimidazopyrazinones with Oral Activity against Tuberculosis and Chagas Disease in Mouse Models of Infection” (J Med Chem, 2022).

Each structure is given as a SMILES string. ≈ marks a conversion by molar mass, not a printed value. Some results are limits rather than exact numbers.

Data set [1] is described as follows: Solubility of compound in water by LC-UV analysis. The class given is physicochemical.
Data set [2] is described as follows: Solubility of compound in PBS at 7.4 by LC-UV analysis. Conditions: pH 7.4. Format: physicochemical.
Data set [3] deals with Mycobacterium tuberculosis. Kind of data set: Antimycobacterial activity against Mycobacterium tuberculosis H37Rv ATCC 27294 assessed as bacterial growth inhibition incubated for 5 days under normoxic condition by resazurin microtiter assay. The class given is functional. Conditions: H37Rv ATCC 27294, 120 h, time 5 day.
The test system of data set [4] is Mycobacterium tuberculosis. Kind of data set: Antimycobacterial activity against Mycobacterium tuberculosis H37Rv ATCC 27294 assessed as bacterial growth inhibition incubated for 5 days under hypoxic condition by resazurin microtiter assay. The following applies: H37Rv ATCC 27294, 120 h, time 5 day. The class given is functional.
In data set [5] the test system is Mycobacterium tuberculosis. Description: Substrate activity at Mycobacterium tuberculosis Ddn expressed in Escherichia coli BL21 (DE3) assessed as oxidation of F420H2 by measuring Kcat by spectrophotometric analysis.
In data set [6] the test system is Mycobacterium tuberculosis. Description: Substrate activity at Mycobacterium tuberculosis Ddn expressed in Escherichia coli BL21 (DE3) assessed as oxidation of F420H2 by measuring Kcat/Km by spectrophotometric analysis.
Data set [7] deals with Mycobacterium tuberculosis. Kind of data set: Substrate activity at Mycobacterium tuberculosis Ddn expressed in Escherichia coli BL21 (DE3) assessed as oxidation of F420H2 by measuring Km by spectrophotometric analysis.
Data set [8] can be described thus: Half life in CD-1 mouse at 20 mg/kg, po administered as DMSO/PEG400/Cremophor RH40/water formulation measured upto 24 hrs by LC-MS/MS analysis. Conditions: in vivo. Format: ADME, organism-based.
The test system of data set [9] is Mycobacterium tuberculosis. Description: Antimycobacterial activity against Mycobacterium tuberculosis H37Ra ATCC 25177 assessed as bacterial growth inhibition incubated for 6 days under normoxic condition by resazurin microtiter assay. The class given is functional. Conditions: H37Ra ATCC 25177, 144 h, time 6 day.
The nature of data set [10]: Volume of distribution at steady state in CD-1 mouse at 5 mg/kg, iv administered as DMSO/PEG400/Cremophor RH40/water formulation measured upto 24 hrs by LC-MS/MS analysis. Format: ADME, organism-based. The following applies: in vivo, read-out: Vdss.
The subject of data set [11] is Mycolicibacterium smegmatis. Kind of data set: Antimycobacterial activity against Mycobacterium smegmatis mc2155 ATCC 700084 assessed as bacterial growth inhibition incubated for 24 hrs under normoxic condition by resazurin microtiter assay. Format: functional.
A short description of data set [12]: AUC(0 to 8 hrs) in CD-1 mouse at 20 mg/kg, po administered as DMSO/PEG400/Cremophor RH40/water formulation measured upto 24 hrs by LC-MS/MS analysis. The class given is ADME, organism-based. On the set-up: time < 24 hrs, dose 20 mg/kg, route po. The following applies: in vivo.
The nature of data set [13]: Oral bioavailability in CD-1 mouse at 20 mg/kg administered as DMSO/PEG400/Cremophor RH40/water formulation measured upto 24 hrs by LC-MS/MS analysis. Format: ADME, organism-based. Conditions: in vivo.
Data set [14] in a line: Clearance in CD-1 mouse at 5 mg/kg, iv administered as DMSO/PEG400/Cremophor RH40/water formulation measured upto 24 hrs by LC-MS/MS analysis. The class given is ADME, organism-based. Conditions: in vivo.
Another data set deals with Mycobacterium avium. Description: Antimycobacterial activity against Mycobacterium avium ATCC 25291 assessed as bacterial growth inhibition incubated for 6 days under normoxic condition by resazurin microtiter assay. Format: functional. The following applies: ATCC 25291, 144 h, time 6 day.
Data set [15] can be described thus: Tmax in CD-1 mouse at 20 mg/kg, po administered as DMSO/PEG400/Cremophor RH40/water formulation measured upto 24 hrs by LC-MS/MS analysis. The class given is ADME, organism-based. The following applies: in vivo.
Data set [16] in a line: Cmax in CD-1 mouse at 20 mg/kg, po administered as DMSO/PEG400/Cremophor RH40/water formulation measured upto 24 hrs by LC-MS/MS analysis. Conditions: in vivo. On the set-up: dose 20 mg/kg, time < 24 hrs, route po. The class given is ADME, organism-based.
Data set [17] in a line: Half life in CD-1 mouse at 5 mg/kg, iv administered as DMSO/PEG400/Cremophor RH40/water formulation measured upto 24 hrs by LC-MS/MS analysis. The class given is ADME, organism-based. Conditions: in vivo.
A short description of data set [18]: Oral bioavailability in CD-1 mouse at 20 mg/kg administered as DMSO/PEG400 formulation measured upto 24 hrs by LC-MS/MS analysis. The following applies: in vivo. Format: ADME, organism-based.
Data set [19] can be described thus: Plasma protein binding in human. The class given is ADME, cell-free. The following applies: read-out: PPB (converted).
Data set [20] in a line: Cmax in CD-1 mouse at 20 mg/kg, po administered as DMSO/PEG400 formulation measured upto 24 hrs by LC-MS/MS analysis. Format: ADME, organism-based. On the set-up: dose 20 mg/kg, time < 24 hrs, route po. The following applies: in vivo.
The nature of data set [21]: Clearance in CD-1 mouse at 5 mg/kg, iv administered as DMSO/PEG400 formulation measured upto 24 hrs by LC-MS/MS analysis. The class given is ADME, organism-based. The following applies: in vivo.
The nature of data set [22]: Half life in CD-1 mouse at 5 mg/kg, iv administered as DMSO/PEG400 formulation measured upto 24 hrs by LC-MS/MS analysis. Format: ADME, organism-based. Conditions: in vivo.
A short description of data set [23]: Metabolic stability in human microsomes assessed as compound remaining measured after 2 hrs. Format: ADME, Microsome. Conditions: read-out: Stability.
A short description of data set [24]: Stability in human plasma assessed as compound remaining measured after 2 hrs. The following applies: read-out: Stability. Format: ADME, cell-free.
The nature of data set [25]: Volume of distribution at steady state in CD-1 mouse at 5 mg/kg, iv administered as DMSO/PEG400 formulation measured upto 24 hrs by LC-MS/MS analysis. Format: ADME, organism-based. The following applies: in vivo, read-out: Vdss.
Data set [26] can be described thus: AUC(0 to 8 hrs) in CD-1 mouse at 20 mg/kg, po administered as DMSO/PEG400 formulation measured upto 24 hrs by LC-MS/MS analysis. Format: ADME, organism-based. On the set-up: dose 20 mg/kg, time < 24 hrs, route po. Conditions: in vivo.
A short description of data set [27]: Metabolic stability in mouse microsomes assessed as compound remaining measured after 2 hrs. The class given is ADME, Microsome. Conditions: read-out: Stability.
Data set [28] is described as follows: Plasma protein binding in mouse. The class given is ADME, cell-free. Conditions: read-out: PPB (converted).
A short description of data set [29]: Tmax in CD-1 mouse at 20 mg/kg, po administered as DMSO/PEG400 formulation measured upto 24 hrs by LC-MS/MS analysis. Format: ADME, organism-based. Conditions: in vivo.
A short description of data set [30]: Half life in CD-1 mouse at 20 mg/kg, po administered as DMSO/PEG400 formulation measured upto 24 hrs by LC-MS/MS analysis. The class given is ADME, organism-based. The following applies: in vivo.
Data set [31] is described as follows: AUC(0 to 24 hrs) in CD-1 mouse at 20 mg/kg, po administered as DMSO/PEG400 formulation measured upto 24 hrs by LC-MS/MS analysis. Format: ADME, organism-based. Conditions: in vivo. On the set-up: dose 20 mg/kg, time < 24 hrs, route po.
Data set [32] deals with Trypanosoma cruzi. Description: Antitrypanosomal activity against Trypanosoma cruzi Tulahuen amastigotes infected in mouse 3T3 cells assessed as reduction in parasite growth at Emax concentration incubated for 48 hrs by […] staining based analysis. The class given is functional. On the set-up: scale not given: the % may be the effect or the level left.
The nature of data set [33]: Selectivity index, ratio of CC50 for cytotoxicity against mouse 3T3 cells to IC50 for antitrypanosomal activity against Trypanosoma cruzi Tulahuen amastigotes infected in mouse 3T3 cells. Conditions: read-out: Ratio CC50/IC50. Format: toxicity, cell-based.
Data set [34] is described as follows: Cytotoxicity against mouse 3T3 cells. Format: toxicity, cell-based. Conditions: NIH3T3 cells.
Data set [35] has as its system Trypanosoma cruzi. Description: Antitrypanosomal activity against Trypanosoma cruzi Tulahuen amastigotes infected in mouse 3T3 cells assessed as inhibition of parasite growth incubated for 48 hrs by […] staining based analysis. The class given is functional, organism-based.

In the case of `O=C1c2nc([N+](=O)[O-])cn2CN1Cc1ccccc1`, the solubility in [1] (water, read-out: solubility) was found to be 5.9 µM (≈ 1.52 µg/mL); in data set [2] it was 5.9 µM (≈ 1.52 µg/mL). In addition, the MIC in data set [3] and in data set [4] was more than 32 µg/mL each time.
As for `O=c1c2nc([N+](=O)[O-])cn2ccn1Cc1ccc(N2CCCCC2)cc1`, the kcat in data set [5] is 1.7 10^-3/s. Further, the kcat/Km in data set [6] worked out at 773 M⁻¹ s⁻¹. Further, the Km in data set [7] came out at 2.2 µM.
With `O=c1[nH]c(-c2ccccc2)cn2cc([N+](=O)[O-])nc12`, the solubility in data set [1] (buffer) was found to be 27 µM (≈ 6.92 µg/mL). Further, in data set [5], the kcat was 1.3 10^-3/s. Moreover, the half-life in data set [8] is 3.2 h; in data set [17], 1.2 h. Further, the catalytic efficiency (kcat/Km) in data set [6] was found to be 8.1 M⁻¹ s⁻¹. Moreover, the MIC (in data set [9]; in [11]; in data set [3]; with Mycobacterium avium; in data set [4]) was more than 32 µg/mL throughout. Further, in [10], the Vd came to 0.34 L/kg. In [12], this molecule gave an AUC(0-t) at 24 h of 88300 ng·h/mL. Moreover, the bioavailability in [13] was 87%. In addition, in data set [14], the clearance came out at 3.38 mL/min/kg. Besides, the Km in data set [7] is 164 µM. The Tmax in data set [15] amounted to 2 h. This molecule also registered a Cmax in data set [16] of 13000 ng/mL.
For `O=c1c2nc([N+](=O)[O-])cn2ccn1Cc1cccc(OC(F)(F)F)c1`, the solubility in data set [1] (water, read-out: solubility) came out at 5.4 µM (≈ 1.91 µg/mL). Moreover, the kcat in data set [5] is 3.1 10^-3/s. In data set [18], the bioavailability was found to be 73%. Moreover, the fraction unbound in [19] and in [28] was less than 0.01 each time. In addition, the kcat/Km in data set [6] is 70 M⁻¹ s⁻¹. The same molecule displayed a Cmax in [20] of 2900 ng/mL. The MIC (in [11]; with Mycobacterium avium) was more than 32 µg/mL each time. This molecule yielded a clearance in data set [21] of 10.1 mL/min/kg. In addition, in data set [22], the half-life is 1.1 h. The Michaelis-Menten constant (Km) in data set [7] was determined as 45 µM. The remaining at 2 h in data set [23] was more than 99%; in data set [24], 99%; in [27] it was 97%. Also, the Vd in data set [25] amounted to 1.1 L/kg. In data set [26], this molecule yielded an AUC(0-t) at 24 h of 15600 ng·h/mL. Moreover, the Tmax in [29] was 3 h.
For the molecule `Cc1c(C)n2cc([N+](=O)[O-])nc2c(=O)n1Cc1ccc(OC(F)(F)F)cc1`, the kcat in data set [5] was 6.9 10^-3/s. Further, the kcat/Km in data set [6] amounted to 244 M⁻¹ s⁻¹. In addition, the MIC (in data set [11]; in the data set on Mycobacterium avium) was more than 32 µg/mL each time. In addition, the Km in data set [7] was found to be 28 µM.
On to `Cc1cn2cc([N+](=O)[O-])nc2c(=O)n1Cc1ccc(OC(F)(F)F)cc1`, for which the MIC in [9] is 4 µg/mL (≈ 10.9 µM); in data set [11] it was more than 32 µg/mL; in data set [3], more than 32 µg/mL; in the data set on Mycobacterium avium, more than 32 µg/mL.
With `O=c1c2nc([N+](=O)[O-])cn2ccn1Cc1ccc(-c2ccc(OC(F)(F)F)cc2)cn1`, in data set [18], the bioavailability amounted to 45%. The molecule also had a Cmax in data set [20] of 3600 ng/mL. Moreover, the clearance in [21] stood at 2.06 mL/min/kg. Besides, the values for the half-life in data set [22] and in data set [30] were 7.2 h and 6.1 h, respectively. In addition, in [25], the Vd came out at 1.3 L/kg. The molecule further displayed an AUC(0-t) at 24 h in [31] of 45900 ng·h/mL. Besides, in data set [29], the Tmax came out at 5.3 h.
`CC[C@@H]([C@H](C)O)n1ncn(-c2ccc(N3CCN(c4ccc(OC[C@@H]5CO[C@@](Cn6cncn6)(c6ccc(F)cc6F)C5)cc4)CC3)cc2)c1=O` [POSACONAZOLE]: the Activity in the data set with Trypanosoma cruzi [32] was determined as 87%. Also, the selectivity ratio in data set [33] was more than 569. In data set [34], this molecule had a CC50 of more than 1000 nM. Besides, the IC50 with Trypanosoma cruzi [35] (NIH3T3, 48 h) was 2 nM. Moreover, the IC90 in the data set with Trypanosoma cruzi [35] (NIH3T3, time 48 hrs) is 4 nM.
As for `NNC(=O)c1ccncc1` [ISONIAZID], the MIC in data set [9] is 0.031 µg/mL (≈ 0.226 µM); in data set [11] it was more than 32 µg/mL; in the data set on Mycobacterium avium it was more than 32 µg/mL.
